Assay results published in patent US5972639A, “Fluorescence-based assays for measuring cell proliferation” (Irori, priority 1997, dated 1999).
Read-outs that look alike come from different tables or passages of the source.

Key:
[1] = tested on: HUVEC intracellular acid phosphatase; format: biochemical, human
[2] = tested on: HDMEC intracellular acid phosphatase; experiment: acid phosphatase assay of HDMEC with AttoPhos/BBTP; format: biochemical, human; conditions: for Fluorescence: A/2 plate
Method: (§1) To establish a relation between acid phosphatase activity and cell numbers, cells were seeded at various densities (50-20,000) onto replicate plastic 96-well plates or half area 96-well microtiter plates (Costar) and incubated at 37° C. for 3.5 hours to allow attachment. Cell number was then assessed by measuring intracellular acid phosphatase with three different substrates: p-nitrophenyl phosphate, which has a calorimetric endpoint, 4-methylumbelliferyl phosphate (MUP) and 2'-[2-benzthiazoyl]-6'-hydoxybenzothiazole phosphate bis-[2-amino-2-methyl-13-propanediol] salt (AttoPhos™), which have fluorometric endpoints.
(§2) Plates were incubated for 1 hour at room temperature and the reaction was terminated with 50 μL of stop solution (240 mM diethanolamine, pH 10). Fluorescence was measured at excitation wavelength of 450 nm and emission wavelength of 580 nm using a fluorimeter (Cytofluor 4000, PerSeptive Biosystems). Nonenzymatic hydrolysis was determined in wells containing no cells and subtracted from the experimental values. Since the background is subtracted, in general, the actual signal to noise ratios at lower cell numbers is better than what presented in the table.

CHO-K1 acid phosphatase = experiment: acid phosphatase assay of CHO-K1 with AttoPhos/BBTP; format: biochemical, Chinese hamster; conditions: for Fluorescence: A/2 plate
Method: as §1, §2

[3] = tested on: 3T3 cells acid phosphatase; experiment: acid phosphatase assay of 3T3 cells with AttoPhos/BBTP; format: biochemical, mouse; conditions: for Fluorescence: 96-well plate, AttoPhos 500 μM
Method: as §1
as §2, with “After washing with D-PBS, 150 μL 0.5 mM AttoPhos™ in 0.1 M Tris-citrate (0.1 M Tris-base, 0.1 M citric acid, pH 6.5 containing 0.25% Triton X-100) was added to each well and placed on an orbital shaker for 5 minutes as described for MUP. Plates” for “Plates”

T47-D acid phosphatase = experiment: Km of substrate for acid phosphatase, T47-D; format: biochemical; conditions: T47-D human breast carcinoma; BBTP 1.5 mM, 1 h at RT
Source text: (§3) Km of substrate for acid phosphatase for a variety of cells

K562 acid phosphatase = experiment: Km of substrate for acid phosphatase, K562; format: biochemical; conditions: K562 suspension, human chronic myelogenous leukemia; BBTP 1 mM, 1 h at RT
Source text: as §3

HL-60 acid phosphatase = experiment: Km of substrate for acid phosphatase, HL-60; format: biochemical; conditions: HL-60 suspension, human promyelocytic leukemia; BBTP 1 mM, 1 h at RT
Source text: as §3

2008 acid phosphatase = experiment: Km of substrate for acid phosphatase, 2008; format: biochemical; conditions: 2008 human ovarian carcinoma; BBTP 1 mM, 1 h at RT
Source text: as §3

Molt-4 acid phosphatase = experiment: Km of substrate for acid phosphatase, Molt-4; format: biochemical; conditions: Molt-4 suspension, human acute lymphoblastic leukemia; BBTP 1 mM, 1 h at RT
Source text: as §3

acid phosphatases = experiment: Km of BBTP for acid phosphatases; format: biochemical; conditions: see EXAMPLES
Source text: as §3

Alkaline phosphatase = conditions: reported in U.S. Pat. No. 5,424,440; read-out: Km of the substrate with alkaline phosphatase; cited from earlier work

**Q.** What does the source list for `O=P(O)(O)Oc1ccc2nc(-c3nc4ccccc4s3)sc2c1` [BBTP, 2'(2-benzothiazoyl)-6'-hydroxy-benzthiazole phosphate]?
**A.** Fluorescence ([1]; 625 HUVEC/well, 96-well plate, AttoPhos 250 μM): 1695 ± 65 RFU; Fluorescence ([1]; 625 HUVEC/well, 96-well plate, AttoPhos 500 μM): 1561 ± 39 RFU; Fluorescence ([1]; 625 HUVEC/well, half area 96-well (A/2) plate, AttoPhos 250 μM): 1867 ± 68 RFU; Fluorescence ([1]; 625 HUVEC/well, half area 96-well (A/2) plate, AttoPhos 500 μM): 2040 ± 55 RFU; Fluorescence ([1]; 1,250 HUVEC/well, 96-well plate, AttoPhos 250 μM): 2853 ± 180 RFU; Fluorescence ([1]; 1,250 HUVEC/well, 96-well plate, AttoPhos 500 μM): 2737 ± 106 RFU; Fluorescence ([1]; 1,250 HUVEC/well, half area 96-well (A/2) plate, AttoPhos 250 μM): 3438 ± 132 RFU; Fluorescence ([1]; 1,250 HUVEC/well, half area 96-well (A/2) plate, AttoPhos 500 μM): 3757 ± 132 RFU; Fluorescence ([1]; 2,500 HUVEC/well, 96-well plate, AttoPhos 250 μM): 5019 ± 188 RFU; Fluorescence ([1]; 2,500 HUVEC/well, 96-well plate, AttoPhos 500 μM): 5186 ± 125 RFU; Fluorescence ([1]; 2,500 HUVEC/well, half area 96-well (A/2) plate, AttoPhos 250 μM): 6664 ± 128 RFU; Fluorescence ([1]; 2,500 HUVEC/well, half area 96-well (A/2) plate, AttoPhos 500 μM): 7046 ± 240 RFU; Fluorescence ([1]; 5,000 HUVEC/well, 96-well plate, AttoPhos 250 μM): 10578 ± 119 RFU; Fluorescence ([1]; 5,000 HUVEC/well, 96-well plate, AttoPhos 500 μM): 10406 ± 498 RFU; Fluorescence ([1]; 5,000 HUVEC/well, half area 96-well (A/2) plate, AttoPhos 250 μM): 12807 ± 399 RFU; Fluorescence ([1]; 5,000 HUVEC/well, half area 96-well (A/2) plate, AttoPhos 500 μM): 14586 ± 498 RFU; Fluorescence ([1]; 10,000 HUVEC/well, 96-well plate, AttoPhos 250 μM): 20670 ± 967 RFU; Fluorescence ([1]; 10,000 HUVEC/well, 96-well plate, AttoPhos 500 μM): 21198 ± 240 RFU; Fluorescence ([1]; 10,000 HUVEC/well, half area 96-well (A/2) plate, AttoPhos 250 μM): 25684 ± 1488 RFU; Fluorescence ([1]; 10,000 HUVEC/well, half area 96-well (A/2) plate, AttoPhos 500 μM): 28302 ± 448 RFU; Fluorescence ([1]; 20,000 HUVEC/well, 96-well plate, AttoPhos 250 μM): 37889 ± 501 RFU; Fluorescence ([1]; 20,000 HUVEC/well, 96-well plate, AttoPhos 500 μM): 38528 ± 1540 RFU; Fluorescence ([1]; 20,000 HUVEC/well, half area 96-well (A/2) plate, AttoPhos 250 μM): 46409 ± 1009 RFU; Fluorescence ([1]; 20,000 HUVEC/well, half area 96-well (A/2) plate, AttoPhos 500 μM): 49706 ± 790 RFU; Km ([1]; HUVEC, BBTP 0.5 mM, 1 h at RT): 88 µM; Fluorescence ([2]; 50 HDMEC/well, AttoPhos 100 μM): 829 ± 26 RFU; Fluorescence ([2]; 50 HDMEC/well, AttoPhos 250 μM): 1014 ± 80 RFU; Fluorescence ([2]; 50 HDMEC/well, AttoPhos 500 μM): 1496 ± 4.6 RFU; Fluorescence ([2]; 100 HDMEC/well, AttoPhos 100 μM): 1609 ± 157 RFU; Fluorescence ([2]; 100 HDMEC/well, AttoPhos 250 μM): 1545 ± 253 RFU; Fluorescence ([2]; 100 HDMEC/well, AttoPhos 500 μM): 2032 ± 97 RFU; Fluorescence ([2]; 250 HDMEC/well, AttoPhos 100 μM): 2347 ± 209 RFU; Fluorescence ([2]; 250 HDMEC/well, AttoPhos 250 μM): 2383 ± 24 RFU; Fluorescence ([2]; 250 HDMEC/well, AttoPhos 500 μM): 3686 ± 270 RFU; Fluorescence ([2]; 500 HDMEC/well, AttoPhos 100 μM): 3682 ± 263 RFU; Fluorescence ([2]; 500 HDMEC/well, AttoPhos 250 μM): 3998 ± 313 RFU; Fluorescence ([2]; 500 HDMEC/well, AttoPhos 500 μM): 6404 ± 665 RFU; Fluorescence ([2]; 1,000 HDMEC/well, AttoPhos 100 μM): 6653 ± 483 RFU; Fluorescence ([2]; 1,000 HDMEC/well, AttoPhos 250 μM): 7594 ± 411 RFU; Fluorescence ([2]; 1,000 HDMEC/well, AttoPhos 500 μM): 9822 ± 930 RFU; Fluorescence ([2]; 2,500 HDMEC/well, AttoPhos 100 μM): 15566 ± 167 RFU; Fluorescence ([2]; 2,500 HDMEC/well, AttoPhos 250 μM): 13382 ± 310 RFU; Fluorescence ([2]; 2,500 HDMEC/well, AttoPhos 500 μM): 20580 ± 436 RFU; Fluorescence ([2]; 5,000 HDMEC/well, AttoPhos 100 μM): 28018 ± 817 RFU; Fluorescence ([2]; 5,000 HDMEC/well, AttoPhos 250 μM): 25468 ± 843 RFU; Fluorescence ([2]; 5,000 HDMEC/well, AttoPhos 500 μM): 34112 ± 1797 RFU; Fluorescence ([2]; 10,000 HDMEC/well, AttoPhos 100 μM): 35787 ± 1325 RFU; Fluorescence ([2]; 10,000 HDMEC/well, AttoPhos 250 μM): 40725 ± 1850 RFU; Fluorescence ([2]; 10,000 HDMEC/well, AttoPhos 500 μM): 54430 ± 133 RFU; Km ([2]; HDMEC, BBTP 1.5 mM, 1 h at RT, read-out: Km): 80 µM; Km ([2]; human dermal microvascular endothelial cells, read-out: apparent Km): ~100 µM; Fluorescence (CHO-K1 acid phosphatase; 250 CHO-K1/well, AttoPhos 100 μM): 552 ± 26 RFU; Fluorescence (CHO-K1 acid phosphatase; 250 CHO-K1/well, AttoPhos 250 μM): 683 ± 36 RFU; Fluorescence (CHO-K1 acid phosphatase; 250 CHO-K1/well, AttoPhos 500 μM): 721 ± 90 RFU; Fluorescence (CHO-K1 acid phosphatase; 500 CHO-K1/well, AttoPhos 100 μM): 790 ± 70 RFU; Fluorescence (CHO-K1 acid phosphatase; 500 CHO-K1/well, AttoPhos 250 μM): 1008 ± 21 RFU; Fluorescence (CHO-K1 acid phosphatase; 500 CHO-K1/well, AttoPhos 500 μM): 1010 ± 126 RFU; Fluorescence (CHO-K1 acid phosphatase; 1,000 CHO-K1/well, AttoPhos 100 μM): 1031 ± 138 RFU; Fluorescence (CHO-K1 acid phosphatase; 1,000 CHO-K1/well, AttoPhos 250 μM): 1296 ± 64 RFU; Fluorescence (CHO-K1 acid phosphatase; 1,000 CHO-K1/well, AttoPhos 500 μM): 1400 ± 47 RFU; Fluorescence (CHO-K1 acid phosphatase; 2,000 CHO-K1/well, AttoPhos 100 μM): 2179 ± 156 RFU; Fluorescence (CHO-K1 acid phosphatase; 2,000 CHO-K1/well, AttoPhos 250 μM): 2628 ± 148 RFU; Fluorescence (CHO-K1 acid phosphatase; 2,000 CHO-K1/well, AttoPhos 500 μM): 2936 ± 382 RFU; Fluorescence (CHO-K1 acid phosphatase; 4,000 CHO-K1/well, AttoPhos 100 μM): 3905 ± 234 RFU; Fluorescence (CHO-K1 acid phosphatase; 4,000 CHO-K1/well, AttoPhos 250 μM): 4162 ± 122 RFU; Fluorescence (CHO-K1 acid phosphatase; 4,000 CHO-K1/well, AttoPhos 500 μM): 4832 ± 357 RFU; Fluorescence (CHO-K1 acid phosphatase; 8,000 CHO-K1/well, AttoPhos 100 μM): 7785 ± 684 RFU; Fluorescence (CHO-K1 acid phosphatase; 8,000 CHO-K1/well, AttoPhos 250 μM): 8356 ± 237 RFU; Fluorescence (CHO-K1 acid phosphatase; 8,000 CHO-K1/well, AttoPhos 500 μM): 9138 ± 440 RFU; Fluorescence (CHO-K1 acid phosphatase; 12,000 CHO-K1/well, AttoPhos 100 μM): 12481 ± 462 RFU; Fluorescence (CHO-K1 acid phosphatase; 12,000 CHO-K1/well, AttoPhos 250 μM): 12959 ± 124 RFU; Fluorescence (CHO-K1 acid phosphatase; 12,000 CHO-K1/well, AttoPhos 500 μM): 12198 ± 83 RFU; Km (CHO-K1 acid phosphatase; CHO-K1 Chinese hamster ovary, BBTP 0.5 mM, 1 h at RT): 172 µM; Fluorescence ([3]; 250 3T3 cells/well): 1866 ± 100 RFU; Fluorescence ([3]; 500 3T3 cells/well): 3194 ± 172 RFU; Fluorescence ([3]; 1,000 3T3 cells/well): 6149 ± 176 RFU; Fluorescence ([3]; 2,000 3T3 cells/well): 10115 ± 840 RFU; Fluorescence ([3]; 4,000 3T3 cells/well): 21314 ± 1558 RFU; Fluorescence ([3]; 8,000 3T3 cells/well): 44831 ± 1793 RFU; Fluorescence ([3]; 10,000 3T3 cells/well): 49860 ± 556 RFU; Km ([3]; NIH 3T3 mouse embryonic fibroblasts, BBTP 0.5 mM, 1, at RT): 87 µM; Km (T47-D acid phosphatase): 261 µM; Km (K562 acid phosphatase): 82 µM; Km (HL-60 acid phosphatase): 108 µM; Km (2008 acid phosphatase): 106 µM; Km (Molt-4 acid phosphatase): 130 µM; Km (acid phosphatases): ~100 µM; Km (Alkaline phosphatase): ~2000 µM
